Measured values as given in patent publication US11072634B2, “Inhibitors of transglutaminases” (Zedira GmbH, priority 2016, dated 2021).
*1 amine or outer side, *2 acyl side, *3 side chain or, on linkers, in order; H or OH if unused. Where a SMILES comes first, the peptide text is derived from it. [ ]: non-standard residue; d: D form. The star is where a group is joined. Nle(5,6-dioxo,6-NHMe) = CNC(=O)C(=O)CC[C@H](N)C(=O)O; X1 = CCCCCNC(=O)C(=O)CC[C@H](N[*:1])C(=O)[*:2]; Isonicotinoyl(3-COOH) = O=C(O)c1cnccc1C(=O)*; X6 = CCNC(=O)C(=O)CC[C@H](N[*:1])C(=O)[*:2]; DON = [N-]=[N+]=CC(=O)CC[C@H](N)C(=O)O; Pro(4-oxo) = O=C1CN[C@H](C(=O)O)C1; Chg = N[C@H](C(=O)O)C1CCCCC1; Tle = CC(C)(C)[C@H](N)C(=O)O; Cbz = O=C(OCc1ccccc1)*

Columns and labels:
[1] = system: CaCo2 and Huh7 cells; assay: Cytotoxicity of transglutaminase inhibitors (BrdU and EZ4U); format: cell-based, human; conditions: BrdU and EZ4U, depending on the cell type
Protocol: (§1) The following cell lines are used for determination of cytotoxicity: • CaCo2 (human colon carcinoma cell line) • Huh7 (human liver carcinoma cell line).
(§2) Cells are cultivated in DMEM/10% FCS at 37° C. and 5% CO2 in a 96 well plate with an initial seeding density of 2×10^4 cells/well.
(§3) Transglutaminase inhibitors are added to the cells with final concentrations from 0.1 μM to 1 mM one hour after seeding. The different inhibitor dilutions are prepared in DMSO, resulting in a final concentration of 1% (v/v) DMSO in every well (2 μl inhibitor in 200 μl cell culture medium). Cycloheximide (2.5 μg/ml) and Camptothecin (0.2 μg/ml) are used as control compounds. All measurements are performed in triplicates.
Cytotoxicity of transglutaminase inhibitors is evaluated with two different assays:
(§4) Determination of proliferation using Cell Proliferation ELISA, BrdU (Roche, Cat. No. 11647229001).
After 24 h of incubation with inhibitors or controls, BrdU is added to the cells. After further incubation for 18 h, the cells are fixed and cellular DNA becomes denatured. […] Substrate solution is added and absorbance at 450 nm is recorded. […]
(§5) After 48 h of incubation with inhibitors or controls, the tetrazolium substrate is added to the cells. Substrate turnover by the cells is measured over two hours at 450 nm (using 630 nm was reference wavelength).

[2] = system: CaCo2 (human colon carcinoma cell line); assay: Cell Proliferation ELISA, BrdU; format: cell-based
Protocol: as §1, §2, §3, §4
(§6) After 24 h of incubation with inhibitors or controls, BrdU is added to the cells. After further incubation for 18 h, the cells are fixed and cellular DNA becomes denatured. A monoclonal antibody (conjugated with peroxidase) raised against BrdU is added to the wells and binds to BrdU which is incorporated into the DNA. Substrate solution is added and absorbance at 450 nm is recorded. Further analysis is performed according to the manufacturer's protocol.

[3] = system: Huh7 (human liver carcinoma cell line); assay: Cell Proliferation ELISA, BrdU; format: cell-based
Protocol: as §1, §2, §3, §4, §6

[4] = system: CaCo2 (human colon carcinoma cell line); assay: Metabolic activity, EZ4U-Assay; format: cell-based
Protocol: as §1, §2, §3
(§7) Determination of metabolic activity using EZ4U-Assay (Biomedica, Cat. No. BI-5000).
as §5

[5] = system: Huh7 (human liver carcinoma cell line); assay: Metabolic activity, EZ4U-Assay; format: cell-based
Protocol: as §1, §2, §3, §7, §5

[6] = system: fresh citrated whole blood; assay: Thromboelastometry (ROTEM delta) in whole blood with t-PA; conditions: human whole blood; for reduction of maximum clot firmness (MCF) compared to control (K): 6.25-50 μM, with t-PA; for clot lysis at 60 minutes (LI60): in the presence of 0.02% t-PA
Protocol: Thromboelastometry is a visco-elastic method for the assessment of blood coagulation. In whole blood parameters like clotting time (CT), clot formation time (CFT), maximum clot firmness (MCF) and lysis index at 60 min (LI60) were obtained using the ROTEM® delta device according to the manufacturer.
Briefly, 20 μL star-TEM® (0.2 mol/l CaCl2), 20 μL r ex-TEM® (recombinant tissue factor, phospholipids, heparin inhibitor), 10 μL inhibitor stock solution (1.8-0.23 mM), combined with 10 μL t-PA stock solution (0.72 μg/ml) to yield concentrations of 0.9-0.11 mM in 18% DMSO/PBS with 0.36 μg/ml t-PA and 300 μL fresh citrated whole blood (human, from healthy consenting donors) were mixed in a disposable cuvette. As control the inhibitor stock solution was replaced by 36% DMSO/0.36 μg/ml t-PA in PBS.

[7] = target: T1, TG2 (Homo sapiens, UniProt P21980); assay: FXIII assay format using TG2 instead of FXIII (selectivity of FXIIIa blockers); format: biochemical; conditions: Table 3, selectivity with respect to TG2; read-out: IC50 TG2
T1 sequence (P21980 1-687): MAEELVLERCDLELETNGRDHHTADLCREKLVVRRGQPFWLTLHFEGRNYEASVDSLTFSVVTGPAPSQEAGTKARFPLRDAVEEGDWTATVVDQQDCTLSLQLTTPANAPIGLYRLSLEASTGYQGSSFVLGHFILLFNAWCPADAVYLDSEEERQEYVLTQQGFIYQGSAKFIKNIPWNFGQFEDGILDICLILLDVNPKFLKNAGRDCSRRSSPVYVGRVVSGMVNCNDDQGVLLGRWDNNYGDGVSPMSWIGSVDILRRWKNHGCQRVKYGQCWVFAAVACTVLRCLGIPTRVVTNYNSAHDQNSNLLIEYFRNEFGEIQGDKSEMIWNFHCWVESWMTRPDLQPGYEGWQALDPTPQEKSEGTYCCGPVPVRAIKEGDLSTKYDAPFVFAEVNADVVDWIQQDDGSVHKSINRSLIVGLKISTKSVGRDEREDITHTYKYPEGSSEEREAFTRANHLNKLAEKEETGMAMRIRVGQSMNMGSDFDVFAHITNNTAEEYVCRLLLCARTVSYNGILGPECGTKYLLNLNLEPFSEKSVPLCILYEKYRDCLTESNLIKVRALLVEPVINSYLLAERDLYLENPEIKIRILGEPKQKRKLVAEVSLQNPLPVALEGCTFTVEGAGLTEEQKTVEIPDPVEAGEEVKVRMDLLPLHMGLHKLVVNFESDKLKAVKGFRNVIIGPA
Protocol: (§8) 50 μg lyophilized His-tagged recombinant human factor XIII A-subunit (His6-rhFXIII, Zedira product 1027) is reconstituted in H2O (volume depends on original volume before lyophilization) resulting in a buffer containing 20 mM Tris-HCl, 150 mM NaCl, 1 mM EDTA, 1 mM DTT, 189 mg/ml maltodextrin, pH=7.5. The rhFXIII stock solution is diluted in buffer (50 mM Tris-HCl, 7.5 mM CaCl2, 150 mM NaCl, pH=7.4) to give a working solution of 59 U/ml (based on the amine-incorporation activity measured using transglutaminase activity assay #1036 (Zedira GmbH), described below).
(§9) A 10 mM inhibitor stock solution is prepared in DMSO, and from this a serial 1:2-fold dilution series is prepared also in DMSO. Each of the initial dilutions is subsequently diluted 1:50-fold with buffer (50 mM Tris-HCl, 7.5 mM CaCl2, 150 mM NaCl, pH=7.4) to yield the final working dilutions containing 2% (v/v) DMSO.
(§10) 15 μl of inhibitor working dilution are added per well of a 96 well microtiter plate. As control, 15 μl of a 2% (v/v) DMSO solution prepared using the buffer mentioned above are added per well.
(§11) 480 μl of His6-rhFXIII working solution and 120 μl human alpha thrombin (0.5 NIH units/μl) are added to 10.8 ml assay buffer (50 mM Tris-HCl, 7.5 mM CaCl2, 150 mM NaCl, 5 mM DTT, 13.4 mM glycine methylester, 50 μM Abz-NE(CAD-DNP)EQVSPLILLK-OH, (Zedira product A101; patent No.: EP 1781807B1), pH=7.4). From this master-mix solution, 285 μl are added per well containing the inhibitor. Increase in fluorescence is measured using […] and λem=418 nm at 37° C. for 35 min. A slope of the increase in fluorescence between 20 and 30 min is calculated for determination of the IC50 value (inhibitor concentration at which 50% of the initial FXIII activity is blocked).
This assay was also used to determine selectivity of inhibitors preferentially blocking FXIIIa by using TG2 instead of FXIII.
(§12) Analysis of enzymatic activity is performed by calculation of the slope of an increase in fluorescence intensity. IC50 values are calculated by plotting the enzymatic activity (as percentage from control containing 2% DMSO instead of inhibitor) against the inhibitor concentration. IC50 is defined as the inhibitor concentration blocking 50%) of initial enzyme activity.

[8] = target: T2, recombinant human factor XIII A-subunit (rhFXIII-A, plasma transglutaminase) (Homo sapiens, UniProt P00488); assay: Inhibition of rec. human coagulation factor XIII (fluorescence, Abz-NE(CAD-DNP)EQVSPLILLK-OH); format: biochemical; conditions: Table 3, FXIII inhibitors; read-out: IC50 FXIII
T2 construct: His6; purchased Zedira 1027 (so in the source); T027)
T2 sequence (P00488 39-732 limits assumed): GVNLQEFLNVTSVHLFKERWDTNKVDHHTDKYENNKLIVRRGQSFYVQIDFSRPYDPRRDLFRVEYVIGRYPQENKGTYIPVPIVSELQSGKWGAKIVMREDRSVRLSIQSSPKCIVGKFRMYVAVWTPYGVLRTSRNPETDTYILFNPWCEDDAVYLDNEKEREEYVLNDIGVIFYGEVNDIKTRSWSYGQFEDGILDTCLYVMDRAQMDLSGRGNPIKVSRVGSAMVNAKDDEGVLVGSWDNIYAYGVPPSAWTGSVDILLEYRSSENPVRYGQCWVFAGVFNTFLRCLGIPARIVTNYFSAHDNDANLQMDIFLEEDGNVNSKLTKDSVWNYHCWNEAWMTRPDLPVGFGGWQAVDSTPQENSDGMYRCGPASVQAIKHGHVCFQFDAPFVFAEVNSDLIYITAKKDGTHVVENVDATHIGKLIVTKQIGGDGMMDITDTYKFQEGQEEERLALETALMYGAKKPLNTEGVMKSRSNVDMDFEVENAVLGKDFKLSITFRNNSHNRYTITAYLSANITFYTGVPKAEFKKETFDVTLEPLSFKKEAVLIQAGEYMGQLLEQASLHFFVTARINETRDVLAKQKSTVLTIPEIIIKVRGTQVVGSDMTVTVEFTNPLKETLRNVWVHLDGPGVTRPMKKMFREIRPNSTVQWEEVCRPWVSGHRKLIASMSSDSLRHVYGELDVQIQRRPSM
Protocol: Method for Inhibition Studies of Rec. Human Coagulation Factor XIII (Plasma Transglutaminase, rhFXIII-A)
as §8, §9, §10, §11, §12

Row | Compound | concentration at which cytotoxic (reduced cell proliferation and metabolic activity) [1] [µM] | Cytotoxicity concentration (>10% deviation from negative control), BrdU, Caco2 [2] [µM] | Cytotoxicity concentration (>10% deviation from negative control), BrdU, Huh-7 [3] [µM] | Cytotoxicity concentration (>10% deviation from negative control), EZ4U, Caoo2 [4] [µM] | Cytotoxicity concentration (>10% deviation from negative control), EZ4U, Huh-7 [5] [µM] | reduction of maximum clot firmness (MCF) compared to control (K) [6] | clot lysis at 60 minutes (LI60) [6] | IC50 [7] [nM] | IC50 [8] [nM]
1 | COC(=O)[C@H](CC(C)C)NC(=O)[C@@H]1CCCN1C(=O)[C@@H](NC(=O)[C@H](CCC(=O)C=[N+]=[N-])NC(=O)OCc1ccccc1)C(C)C [Compound Z006, Z-DON-VPL-OMe, reference compound] (Cbz-[DON]VPL-OMe) | 125 | 250 | 125 | 500 | 125 | – | – | – | –
2 | CNC(=O)C(=O)CC[C@H](NC(=O)c1ccncc1C(=O)O)C(=O)N[C@H](C(=O)N1CC(=O)C[C@H]1C(=O)N[C@H](C(=O)N[C@H](C(N)=O)C1CCCCC1)C1CCCCC1)C(C)(C)C [Compound E25, 4-((S)-1-((S)-1-((S)-2-((S)-2-((S)-2-amino-1-cyclonexyl-2-oxoethylamino)-1-cyclonexyl-2-oxoethylcarbamoyl)-4-oxopyrrolidin-1-yl)-3,3-dimethyl-1-oxobutan-2-ylamino)-6-(methylamino)-1,5,6-trioxohexan-2-ylcarbamoyl)nicotinic acid] ({Isonicotinoyl(3-COOH)}-[Nle(5,6-dioxo,6-NHMe)][Tle][Pro(4-oxo)][Chg][Chg]-NH2) | – | – | – | – | – | dose dependent influence | dose dependent influence | 5500 | 50
3 | CCCCCNC(=O)C(=O)CC[C@H](NC(=O)c1ccncc1C(=O)O)C(=O)N[C@H](C(=O)N1CC(=O)C[C@H]1C(=O)N[C@H](C(=O)N[C@H](C(N)=O)C1CCCCC1)C1CCCCC1)C(C)(C)C [Compound E27, 4-((S)-1-((S)-1-((S)-2-((S)-2-((S)-2-amino-1-cyclohexyl-2-oxoethylamino)-1-cyclohexyl-2-oxoethylcarbamoyl)-4-oxopyrrolidin-1-yl)-3,3-dimethyl-1-oxobutan-2-ylamino)-6-1,5,6-trioxo-6-(pentylamino)hexan-2-ylcarbamoyl)nicotinic acid] ({Isonicotinoyl(3-COOH)}-[X1][Tle][Pro(4-oxo)][Chg][Chg]-NH2) | – | – | – | – | – | dose dependent influence | dose dependent influence | 7800 | 60
4 | CCNC(=O)C(=O)CC[C@H](NC(=O)c1ccncc1C(=O)O)C(=O)N[C@H](C(=O)N1CC(=O)C[C@H]1C(=O)N[C@H](C(=O)N[C@H](C(N)=O)C1CCCCC1)C1CCCCC1)C(C)(C)C [Compound E26, 4-((S)-1-((S)-1-((S)-2-((S)-2-((S)-2-amino-1-cyclohexyl-2-oxoethylamino)-1-cyclohexyl-2-oxoethylcarbamoyl)-4-oxopyrrolidin-1-yl)-3,3-dimethyl-1-oxobutan-2-ylamino)-6-(ethylamino)-1,5,6-trioxohexan-2-ylcarbamoyl)nicotinic acid] ({Isonicotinoyl(3-COOH)}-[X6][Tle][Pro(4-oxo)][Chg][Chg]-NH2) | – | – | – | – | – | – | – | 10800 | 320
